In publication PMC7864676 (Journal of pharmacological sciences, 2018):

B1: human organic anion transporter-3 (hOAT3) (Homo sapiens) (protein)
chain: MTFSEILDRVGSMGHFQFLHVAILGLPILNMANHNLLQIFTAATPVHHCRPPHNASTGPWVLPMGPNGKPERCLRFVHPPNASLPNDTQRAMEPCLDGWVYNSTKDSIVTEWDLVCNSNKLKEMAQSIFMAGILIGGLVLGDLSDRFGRRPILTCSYLLLAASGSGAAFSPTFPIYMVFRFLCGFGISGITLSTVILNVEWVPTRMRAIMSTALGYCYTFGQFILPGLAYAIPQWRWLQLTVSIPFFVFFLSSWWTPESIRWLVLSGKSSKALKILRRVAVFNGKKEEGERLSLEELKLNLQKEISLAKAKYTASDLFRIPMLRRMTFCLSLAWFATGFAYYSLAMGVEEFGVNLYILQIIFGGVDVPAKFITILSLSYLGRHTTQAAALLLAGGAILALTFVPLDLQTVRTVLAVFGKGCLSSSFSCLFLYTSELYPTVIRQTGMGVSNLWTRVGSMVSPLVKITGEVQPFIPNIIYGITALLGGSAALFLPETLNQPLPETIEDLENWSLRAKKPKQEPEVEKASQRIPLQPHGPGLGSS

Columns and labels:
[1] = molecular target: T1, human organic anion transporter-3 (hOAT3) (Homo sapiens, UniProt Q8TCC7); test: cis-inhibition of [3H]-estrone sulfate uptake in hOAT3-expressing HEK293 cells; assay type: cell-based
T1 sequence (Q8TCC7 1-542): B1 chain

[2] = substrate: C[C@]12CC[C@@H]3c4ccc(OS(=O)(=O)O)cc4CC[C@H]3[C@@H]1CCC2=O; test: cells, lysate or membranes

Molecule | Ki [1] | Km [2]
C[C@@H]1C[C@H]2[C@@H]3CCC4=CC(=O)C=C[C@]4(C)[C@@]3(F)[C@@H](O)C[C@]2(C)[C@@]1(O)C(=O)CO [dexamethasone] | 47.1 µM | –
B1 | – | 5.07 ± 0.49 µM
